Laboratory results: ChEMBL document CHEMBL1151553, “Two novel amino acid derivatives containing side-chain thioamides for the synthesis of photoactivatable peptides” (Bioorg Med Chem Lett, 1997)
Numbered stars: 1 amine (or outer) side, 2 acyl side, 3 side chain; on linkers, the order of the positions; unused ones are H or OH. Square brackets hold non-standard residues; d marks the D form. Peptide text beside a SMILES is read from it. X2 = O=C([C@@H](Cc1ccc(NC(=S)Cc2ccccc2)cc1)N[*:1])[*:2]; X1 = O=C([C@@H](Cc1ccc(NC(=S)c2ccccc2)cc1)N[*:1])[*:2]; hCys = N[C@@H](CCS)C(=O)O

Target: T1, Substance-K receptor (Homo sapiens, UniProt P21452)
T1 sequence (P21452 whole entry): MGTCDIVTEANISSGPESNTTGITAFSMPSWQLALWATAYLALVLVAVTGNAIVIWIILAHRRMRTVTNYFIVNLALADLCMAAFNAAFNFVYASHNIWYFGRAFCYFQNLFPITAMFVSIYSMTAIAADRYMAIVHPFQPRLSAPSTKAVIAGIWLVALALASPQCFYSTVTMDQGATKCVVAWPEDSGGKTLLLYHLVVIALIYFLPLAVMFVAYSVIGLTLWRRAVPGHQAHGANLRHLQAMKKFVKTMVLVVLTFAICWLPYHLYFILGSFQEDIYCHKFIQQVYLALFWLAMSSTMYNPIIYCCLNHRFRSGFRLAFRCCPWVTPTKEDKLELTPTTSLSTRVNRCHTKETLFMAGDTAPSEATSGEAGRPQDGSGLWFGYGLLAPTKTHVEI
Experiment: Tested for the binding affinity to human NK2 receptor expressed in Sf-9 insect larval cells using 0.1 nM 2-[125 I] iodohistidyl neurokinin A
Format: functional

Row | IC50 [nM] | Compound
1 | 7.72 | CC(C)C[C@H](NC(=O)CNC(=O)[C@@H](NC(=O)[C@H](Cc1ccccc1)NC(=O)[C@H](CO)NC(=O)[C@H](CC(=O)O)NC(=O)[C@@H](NC(=O)[C@H](CCCCN)NC(=O)[C@@H](Cc1ccc(NC(=S)c2ccccc2)cc1)NC(=O)[C@@H](N)Cc1c[nH]cn1)[C@@H](C)O)C(C)C)C(=O)N[C@@H](CCS)C(N)=O (H-H[X1]KTDSFVGL[hCys]-NH2)
2 | 53.4 | CC(C)C[C@H](NC(=O)CNC(=O)[C@@H](NC(=O)[C@H](Cc1ccccc1)NC(=O)[C@H](CO)NC(=O)[C@H](CC(=O)O)NC(=O)[C@@H](NC(=O)[C@H](CCCCN)NC(=O)[C@@H](Cc1ccc(NC(=S)Cc2ccccc2)cc1)NC(=O)[C@@H](N)Cc1ccc(O)cc1)[C@@H](C)O)C(C)C)C(=O)N[C@@H](CCS)C(N)=O (H-Y[X2]KTDSFVGL[hCys]-NH2)
